pIC50, pKi: −log10 of the molar value.

In experiment [1] the target is T1, Alpha-2A adrenergic receptor (Homo sapiens, UniProt P08913). Further: in other assays of this panel Not Active means under 50% inhibition at 10 µM.
T1 sequence (P08913 whole entry): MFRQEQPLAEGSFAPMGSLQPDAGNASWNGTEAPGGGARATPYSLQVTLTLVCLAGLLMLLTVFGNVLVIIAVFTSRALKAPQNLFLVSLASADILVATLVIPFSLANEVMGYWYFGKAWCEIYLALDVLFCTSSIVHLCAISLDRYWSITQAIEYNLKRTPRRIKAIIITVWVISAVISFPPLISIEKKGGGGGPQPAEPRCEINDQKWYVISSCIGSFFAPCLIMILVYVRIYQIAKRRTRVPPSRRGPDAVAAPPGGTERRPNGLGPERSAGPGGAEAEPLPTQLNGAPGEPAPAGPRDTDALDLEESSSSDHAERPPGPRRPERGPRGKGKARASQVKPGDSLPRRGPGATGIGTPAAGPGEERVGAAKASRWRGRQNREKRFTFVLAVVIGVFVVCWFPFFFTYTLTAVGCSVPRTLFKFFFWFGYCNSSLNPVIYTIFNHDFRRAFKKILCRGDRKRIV
The experiment is classed as cell membranes, Sf9, Membrane. Particulars: for pIC50: read-out: IC50; for pKi: read-out: Ki; for IC50: sf9.

Experiment [2] has as its target Beta-1 adrenergic receptor (Homo sapiens, UniProt P08588). Put plainly: DRUGMATRIX: Adrenergic beta1 radioligand binding (ligand: [125I] Cyanopindolol). The experiment is classed as cell membranes, CHO-K1, Membrane. The conditions noted are these: cho-k1; Not Active = under 50% inhibition at 10 µM.
Experiment [3] concerns the target Beta-2 adrenergic receptor (Homo sapiens, UniProt P07550). The experiment in a line: DRUGMATRIX: Adrenergic beta2 radioligand binding (ligand: [3H] CGP-12177). Type of experiment: cell membranes, CHO, Membrane. The conditions noted are these: cho; Not Active = under 50% inhibition at 10 µM.
In experiment [4] the target is 5-hydroxytryptamine receptor 4 (Cavia porcellus, UniProt O70528). The experiment is classed as cell membranes, Dunkin-Hartley, Striatum, Membrane. Further: in other assays of this panel Not Active means under 50% inhibition at 10 µM.
In experiment [5] the target is Vascular endothelial growth factor receptor 1 (Homo sapiens, UniProt P17948). The experiment is classed as cell-based. The conditions noted are these: huvec. Further: in other assays of this panel Not Active means under 50% inhibition at 10 µM.
Experiment [6] is described as follows: DRUGMATRIX: Glutamate, NMDA, Phencyclidine radioligand binding (ligand: [3H] TCP). The conditions noted are these: Not Active = under 50% inhibition at 10 µM. Type of experiment: cell membranes, Rattus norvegicus, Wistar, Cerebral cortex, Membrane.
The target of experiment [7] is Mitogen-activated protein kinase 14 (Homo sapiens, UniProt Q16539). Also on record: species or system Escherichia coli. Particulars: for pIC50: read-out: IC50.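 On all read-outs here: inhibition of p38alpha enzyme activity in a biochemical kinase assay, with myelin basic protein serving as substrate; in other assays of this panel Not Active means under 50% inhibition at 10 µM.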
Chain of Mitogen-activated protein kinase 14 (Q16539 whole entry): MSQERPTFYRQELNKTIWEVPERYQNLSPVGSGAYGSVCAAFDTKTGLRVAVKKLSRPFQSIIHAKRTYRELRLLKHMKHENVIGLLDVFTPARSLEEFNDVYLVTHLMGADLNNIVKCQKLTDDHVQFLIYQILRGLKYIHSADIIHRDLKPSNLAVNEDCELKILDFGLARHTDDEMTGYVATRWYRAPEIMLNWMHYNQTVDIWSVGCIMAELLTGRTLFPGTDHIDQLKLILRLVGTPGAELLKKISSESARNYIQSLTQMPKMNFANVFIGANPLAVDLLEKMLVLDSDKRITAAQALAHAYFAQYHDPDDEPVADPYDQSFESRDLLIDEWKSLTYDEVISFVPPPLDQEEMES

Chain of Vascular endothelial growth factor receptor 1 (P17948 whole entry): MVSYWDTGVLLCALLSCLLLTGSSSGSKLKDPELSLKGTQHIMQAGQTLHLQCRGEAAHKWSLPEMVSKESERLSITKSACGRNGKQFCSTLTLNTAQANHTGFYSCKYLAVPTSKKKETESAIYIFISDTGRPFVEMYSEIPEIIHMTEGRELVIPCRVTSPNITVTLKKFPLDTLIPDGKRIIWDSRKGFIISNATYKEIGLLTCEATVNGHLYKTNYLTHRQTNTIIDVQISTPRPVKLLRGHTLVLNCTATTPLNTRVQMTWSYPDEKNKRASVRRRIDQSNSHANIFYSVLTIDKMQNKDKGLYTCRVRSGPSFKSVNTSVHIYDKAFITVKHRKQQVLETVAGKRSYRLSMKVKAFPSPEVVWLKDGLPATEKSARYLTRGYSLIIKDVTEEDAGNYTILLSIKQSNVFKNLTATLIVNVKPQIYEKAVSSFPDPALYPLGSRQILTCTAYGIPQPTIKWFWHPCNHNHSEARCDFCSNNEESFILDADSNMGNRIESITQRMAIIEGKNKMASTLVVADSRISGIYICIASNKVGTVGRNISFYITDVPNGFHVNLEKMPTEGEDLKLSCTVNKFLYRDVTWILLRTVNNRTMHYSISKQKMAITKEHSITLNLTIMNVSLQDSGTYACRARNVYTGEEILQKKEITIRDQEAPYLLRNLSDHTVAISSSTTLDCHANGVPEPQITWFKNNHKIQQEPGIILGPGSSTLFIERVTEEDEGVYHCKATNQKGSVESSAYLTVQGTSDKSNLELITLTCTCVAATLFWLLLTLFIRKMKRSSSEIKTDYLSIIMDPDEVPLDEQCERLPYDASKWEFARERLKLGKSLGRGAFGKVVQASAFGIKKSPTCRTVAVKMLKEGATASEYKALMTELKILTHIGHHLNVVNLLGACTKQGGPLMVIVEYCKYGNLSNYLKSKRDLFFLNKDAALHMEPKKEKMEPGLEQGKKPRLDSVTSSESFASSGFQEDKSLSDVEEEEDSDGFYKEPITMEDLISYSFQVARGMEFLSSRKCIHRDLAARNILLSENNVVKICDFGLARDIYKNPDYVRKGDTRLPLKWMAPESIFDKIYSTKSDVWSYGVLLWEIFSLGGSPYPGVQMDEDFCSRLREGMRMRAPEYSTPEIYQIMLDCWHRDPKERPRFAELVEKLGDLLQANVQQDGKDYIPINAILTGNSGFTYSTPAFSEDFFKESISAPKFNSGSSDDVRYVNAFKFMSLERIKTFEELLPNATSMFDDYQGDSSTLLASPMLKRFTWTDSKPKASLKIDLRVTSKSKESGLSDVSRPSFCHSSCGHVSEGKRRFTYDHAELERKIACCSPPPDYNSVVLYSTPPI
Chain of 5-hydroxytryptamine receptor 4 (O70528 whole entry): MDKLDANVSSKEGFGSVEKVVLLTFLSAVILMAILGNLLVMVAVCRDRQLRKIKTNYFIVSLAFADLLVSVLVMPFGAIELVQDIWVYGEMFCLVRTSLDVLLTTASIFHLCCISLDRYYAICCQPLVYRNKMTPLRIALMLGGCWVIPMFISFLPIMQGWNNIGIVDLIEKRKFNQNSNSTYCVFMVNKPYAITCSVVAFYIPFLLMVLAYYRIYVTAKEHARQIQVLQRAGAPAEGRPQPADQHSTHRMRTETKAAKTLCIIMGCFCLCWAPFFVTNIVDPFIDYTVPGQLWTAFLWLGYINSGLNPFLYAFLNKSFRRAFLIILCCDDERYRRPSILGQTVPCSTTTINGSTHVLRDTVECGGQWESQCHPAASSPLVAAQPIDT
Chain of Beta-1 adrenergic receptor (P08588 whole entry): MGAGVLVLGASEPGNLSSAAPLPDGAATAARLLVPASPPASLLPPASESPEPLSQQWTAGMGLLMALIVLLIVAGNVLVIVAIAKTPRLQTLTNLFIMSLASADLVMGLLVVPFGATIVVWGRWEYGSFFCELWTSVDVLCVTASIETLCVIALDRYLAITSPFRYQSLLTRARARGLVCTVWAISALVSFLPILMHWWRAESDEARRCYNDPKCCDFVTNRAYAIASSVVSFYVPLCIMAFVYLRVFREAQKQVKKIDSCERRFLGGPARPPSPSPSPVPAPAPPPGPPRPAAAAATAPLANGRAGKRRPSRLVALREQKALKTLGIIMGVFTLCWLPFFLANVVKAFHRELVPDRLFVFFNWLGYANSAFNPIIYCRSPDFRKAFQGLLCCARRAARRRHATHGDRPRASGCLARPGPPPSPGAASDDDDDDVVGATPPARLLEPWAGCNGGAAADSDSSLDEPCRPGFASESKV
Chain of Beta-2 adrenergic receptor (P07550 whole entry): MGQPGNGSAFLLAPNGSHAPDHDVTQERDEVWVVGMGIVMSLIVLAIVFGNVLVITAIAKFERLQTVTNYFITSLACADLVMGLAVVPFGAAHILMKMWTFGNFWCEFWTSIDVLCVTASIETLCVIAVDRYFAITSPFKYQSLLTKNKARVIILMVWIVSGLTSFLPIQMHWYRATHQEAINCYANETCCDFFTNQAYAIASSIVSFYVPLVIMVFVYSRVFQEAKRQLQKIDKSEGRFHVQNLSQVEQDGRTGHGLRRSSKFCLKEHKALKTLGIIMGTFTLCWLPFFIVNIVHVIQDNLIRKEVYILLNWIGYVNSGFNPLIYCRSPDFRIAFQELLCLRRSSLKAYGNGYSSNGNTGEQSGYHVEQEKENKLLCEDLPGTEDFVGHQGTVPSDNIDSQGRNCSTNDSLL

As for `CC1(COc2ccc(CC3SC(=O)NC3=O)cc2)CCCCC1` (stereo unspecified) [CIGLITAZONE], the pIC50 (commonly the negative decadic logarithm of the IC50, by convention in mol/L) in experiment [1] is 4.78. The negative logarithm of the Ki (pKi) (commonly −log10 of the Ki, conventionally taken in molar units) in experiment [1] is 5.21. The IC50 entry in experiment [2], in experiment [3], in experiment [4], in experiment [5], in experiment [6] and in experiment [7] was “Not Active” in each case. Besides, the Ki result in experiment [6] is on record as “Not Active”.
Take `CC(C)Cc1ccc([C@H](C)C(=O)O)cc1` [DEXIBUPROFEN]: the IC50 result in experiment [1], in experiment [2], in experiment [3], in experiment [4], in experiment [5] and in experiment [6] was “Not Active” throughout. Also, the IC50 entry in experiment [7] is “Not Active”. In experiment [6], the Ki result is “Not Active”.
In the case of `O=c1[nH]cnc2c1ncn2[C@H]1CC[C@@H](CO)O1` [DIDANOSINE], the IC50 result in experiment [1], in experiment [2], in experiment [3], in experiment [4], in experiment [5] and in experiment [6] was “Not Active” throughout. Moreover, in experiment [7], the IC50 result is on record as “Not Active”. In addition, the Ki entry in experiment [6] is “Not Active”.
For the compound `ClC1=C(Cl)[C@]2(Cl)[C@@H]3[C@@H]4C[C@@H]([C@H]5O[C@@H]45)[C@@H]3[C@@]1(Cl)C2(Cl)Cl` [DIELDRIN], the IC50 entry in experiment [1], in experiment [2], in experiment [3], in experiment [4], in experiment [5] and in experiment [6] was “Not Active” each time. In experiment [6], the Ki entry is “Not Active”. In addition, the pIC50 in experiment [7] was 4.36.
Turning to `CCN1CCN(c2cc3c(cc2F)c(=O)c(C(=O)O)cn3C2CC2)CC1` [ENROFLOXACIN], the IC50 entry in experiment [1], in experiment [2], in experiment [3], in experiment [4], in experiment [5] and in experiment [6] was “Not Active” each time. The IC50 entry in experiment [7] was “Not Active”. The Ki result in experiment [6] is listed as “Not Active”.
`CC[C@H]1OC(=O)[C@H](C)[C@@H](O[C@H]2C[C@@](C)(OC)[C@@H](O)[C@H](C)O2)[C@H](C)[C@@H](O[C@@H]2O[C@H](C)C[C@H](N(C)C)[C@H]2O)[C@](C)(O)C[C@@H](C)C(=O)[C@H](C)[C@@H](O)[C@]1(C)O` [ERYTHROMYCIN]: the IC50 entry in experiment [1], in experiment [2], in experiment [3], in experiment [4], in experiment [5] and in experiment [6] was “Not Active” in each case. Also, in experiment [7], the IC50 result was “Not Active”. Further, in experiment [6], the Ki result was “Not Active”.
`CC12CCC(CC1)C(C)(C)O2` [EUCALYPTOL]: the IC50 result in experiment [1], in experiment [2], in experiment [3], in experiment [4], in experiment [5] and in experiment [6] was “Not Active” each time. The IC50 entry in experiment [7] was “Not Active”. The Ki entry in experiment [6] is “Not Active”.
For the compound `NC(N)=Nc1nc(CSCCC(N)=NS(N)(=O)=O)cs1` [FAMOTIDINE], the IC50 entry in experiment [1], in experiment [2], in experiment [3], in experiment [4], in experiment [5] and in experiment [6] was “Not Active” throughout. Moreover, the IC50 entry in experiment [7] is “Not Active”. Also, the Ki entry in experiment [6] was “Not Active”.
As for `COC(=O)Nc1nc2ccc(Sc3ccccc3)cc2[nH]1` [FENBENDAZOLE], the IC50 result in experiment [1], in experiment [2], in experiment [3], in experiment [4], in experiment [5] and in experiment [6] was “Not Active” in each case. Moreover, the Ki entry in experiment [6] was “Not Active”. In addition, in experiment [7], the negative logarithm of the IC50 (pIC50) was 5.50.
For `COc1cc(/C=C/C(=O)O)ccc1O` [FERULATE], the IC50 entry in experiment [1], in experiment [2], in experiment [3], in experiment [4], in experiment [5] and in experiment [6] was “Not Active” in each case. Moreover, the IC50 result in experiment [7] is listed as “Not Active”. For the same compound, the Ki entry in experiment [6] is listed as “Not Active”.
As to `Nc1nc(F)nc2c1ncn2[C@@H]1O[C@H](CO)[C@@H](O)[C@@H]1O` [FLUDARABINE], the IC50 entry in experiment [1], in experiment [2], in experiment [3], in experiment [4], in experiment [5] and in experiment [6] was “Not Active” throughout. Besides, the IC50 result in experiment [7] is reported as “Not Active”. The Ki entry in experiment [6] is “Not Active”.
In the case of `C[C@H](C(=O)O)c1ccc2oc(-c3ccc(F)cc3)nc2c1` [FLUNOXAPROFEN], the IC50 result in experiment [1], in experiment [2], in experiment [3], in experiment [4], in experiment [5] and in experiment [6] was “Not Active” each time. Further, in experiment [7], the IC50 result is given as “Not Active”. Further, the Ki entry in experiment [6] is given as “Not Active”.
`NS(=O)(=O)c1cc(C(=O)O)c(NCc2ccco2)cc1Cl` [FUROSEMIDE]: the IC50 entry in experiment [1], in experiment [2], in experiment [3], in experiment [4], in experiment [5] and in experiment [6] was “Not Active” each time. Besides, the IC50 result in experiment [7] is “Not Active”. Besides, in experiment [6], the Ki result is recorded as “Not Active”.
For the compound `COc1ccc(Cl)cc1C(=O)NCCc1ccc(S(=O)(=O)NC(=O)NC2CCCCC2)cc1` [GLYBURIDE], the IC50 result in experiment [1], in experiment [2], in experiment [3], in experiment [4], in experiment [5] and in experiment [6] was “Not Active” in each case. For the same compound, the IC50 result in experiment [7] is recorded as “Not Active”. Also, in experiment [6], the Ki entry is “Not Active”.
As to `O=C(O)CO` [GLYCOLIC ACID], the IC50 entry in experiment [1], in experiment [2], in experiment [3], in experiment [4], in experiment [5] and in experiment [6] was “Not Active” throughout. Further, the IC50 entry in experiment [7] was “Not Active”. The Ki result in experiment [6] is recorded as “Not Active”.
Regarding `O=C(O)CNCP(=O)(O)O` [GLYPHOSATE], the IC50 entry in experiment [1], in experiment [2], in experiment [3], in experiment [4], in experiment [5] and in experiment [6] was “Not Active” in each case. In addition, the IC50 entry in experiment [7] is “Not Active”. Also, in experiment [6], the Ki result is “Not Active”.
In the case of `Clc1cc(Cl)c(OCC#CI)cc1Cl` [HALOPROGIN], in experiment [1], the negative logarithm of the IC50 (pIC50) is 5.91. The pKi in experiment [1] was 6.34. The IC50 result in experiment [2], in experiment [3], in experiment [4], in experiment [5], in experiment [6] and in experiment [7] was “Not Active” throughout. In addition, in experiment [6], the Ki result is “Not Active”.
Turning to `COC(=O)C[C@](O)(CCC(C)(C)O)C(=O)O[C@@H]1C(OC)=C[C@]23CCCN2CCc2cc4c(cc2[C@H]13)OCO4` [HARRINGTONINE], the IC50 result in experiment [1], in experiment [2], in experiment [3], in experiment [4], in experiment [5] and in experiment [6] was “Not Active” throughout. Moreover, the IC50 entry in experiment [7] is “Not Active”. The Ki entry in experiment [6] is on record as “Not Active”.

For the origin of these results see ChEMBL document CHEMBL1909046, “DrugMatrix in vitro pharmacology data”.
